Reference: patent US20240208979A1, “sGC STIMULATORS” (Tisento Therapeutics Inc., priority 2021, published 2024)

Columns and labels:
human α2β1 sGC isozyme = target: T1, human α2β1 sGC isozyme (Homo sapiens, UniProt P33402+Q02153); assay: cGMP assay on human α2β1 sGC isozyme stably expressed in CHO-K1 cells; assay type: cell-based; details: 10 μM DETA-NONOate, 20 min, cGMP content, geometrical mean
T1 construct: host or cells: CHO-K1
T1 sequence (P33402 1-732): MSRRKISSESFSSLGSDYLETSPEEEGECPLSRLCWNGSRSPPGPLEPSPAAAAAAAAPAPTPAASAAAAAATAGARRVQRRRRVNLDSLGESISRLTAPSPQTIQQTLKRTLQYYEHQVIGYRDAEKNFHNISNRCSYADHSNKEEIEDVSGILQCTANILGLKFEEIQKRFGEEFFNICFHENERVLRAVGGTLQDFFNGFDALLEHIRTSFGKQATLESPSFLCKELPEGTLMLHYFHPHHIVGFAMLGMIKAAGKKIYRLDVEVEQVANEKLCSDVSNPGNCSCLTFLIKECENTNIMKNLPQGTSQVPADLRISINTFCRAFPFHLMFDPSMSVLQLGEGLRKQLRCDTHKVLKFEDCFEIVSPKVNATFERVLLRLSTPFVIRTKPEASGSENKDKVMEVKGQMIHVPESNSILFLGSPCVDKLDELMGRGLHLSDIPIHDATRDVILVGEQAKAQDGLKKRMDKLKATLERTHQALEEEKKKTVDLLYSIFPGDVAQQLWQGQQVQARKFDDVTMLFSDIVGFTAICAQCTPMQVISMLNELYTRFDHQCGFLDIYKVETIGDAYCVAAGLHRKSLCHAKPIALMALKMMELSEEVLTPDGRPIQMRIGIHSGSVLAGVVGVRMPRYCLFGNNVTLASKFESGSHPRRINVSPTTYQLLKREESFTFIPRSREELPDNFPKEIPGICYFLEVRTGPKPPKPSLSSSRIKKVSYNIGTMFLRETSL
T1 sequence (Q02153 1-619): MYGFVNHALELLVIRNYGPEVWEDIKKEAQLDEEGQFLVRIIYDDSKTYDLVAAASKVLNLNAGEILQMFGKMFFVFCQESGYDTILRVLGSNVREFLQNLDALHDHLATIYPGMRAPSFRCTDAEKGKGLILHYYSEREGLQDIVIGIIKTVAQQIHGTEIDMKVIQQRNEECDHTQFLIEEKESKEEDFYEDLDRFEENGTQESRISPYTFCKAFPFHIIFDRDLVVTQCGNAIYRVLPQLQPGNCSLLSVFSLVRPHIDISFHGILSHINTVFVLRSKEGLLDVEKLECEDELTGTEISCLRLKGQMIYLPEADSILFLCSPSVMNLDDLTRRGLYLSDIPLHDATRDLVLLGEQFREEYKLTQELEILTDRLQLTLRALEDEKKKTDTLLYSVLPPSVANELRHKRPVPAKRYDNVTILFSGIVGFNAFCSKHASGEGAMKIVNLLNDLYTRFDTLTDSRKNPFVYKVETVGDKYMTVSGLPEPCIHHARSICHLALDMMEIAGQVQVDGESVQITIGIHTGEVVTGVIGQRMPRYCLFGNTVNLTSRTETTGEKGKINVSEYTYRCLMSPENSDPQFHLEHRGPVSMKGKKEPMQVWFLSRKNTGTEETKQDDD
Description: sGC stimulators were dissolved in DMSO as a 10 mM solution and stored at −20° C. To achieve desired test concentrations, stock concentrations were serially diluted into DMSO and then diluted to the appropriate concentration in assay buffer.
CHO-K1 cells stably transfected with human α2β1 sGC isozyme (generated by GenScript for Ironwood) were cultured in F-12K medium (ATCC catalog #30-2004) with 10% fetal calf serum, 4 μg/mL puromycin (Gibco catalog #A11138-03) and 0.4 mg/mL of geneticin (Gibco catalog #10131-027) in a 95% humidified atmosphere containing 5% CO2 in air at 37° C. For GC activity assays, cells were seeded in 384 well poly-D-lysine coated flat bottom plates (Fisher Scientific #08-774-311) in either 50 μL or 70 μL medium at a density of either 3×10^4 cells/well or 15×10^3, respectively. Cells were incubated for 24 hours at 37° C. in a humidified chamber supplemented with 5% CO2. […]
Following incubation with compound, assay buffer was removed and 50 μL of ice-cold 10% acetic acid+150 ng/mL internal standard (+3 cGMP) was added to each well. […] Following centrifugation at 4° C. for 5 min at 1000×g to pellet cell debris, the supernatant was transferred to a clean plate and the samples analyzed for cGMP content.
Data were analyzed with a 4-parameter fit (log(agonist) vs. response—variable slope) using GraphPad Prism Software v.8. […]

normotensive rats = assay: Blood pressure effects in normotensive rats following acute oral dose; assay type: in vivo, rat; details: Milli-Q water
Description: Male, normotensive Sprague Dawley rats were purchased from Charles River Laboratories. These rats have indwelling femoral artery catheters installed. Animals were harnessed to a tether system and attached to pressure transducers to monitor cardiovascular (CV) parameters, specifically mean arterial pressure (MAP) and heart rate (HR). Animals were acclimated to the system overnight and baseline CV parameters collected. The conscious, freely moving rats were then administered a single oral dose of the Compound I-14 (doses generated from the sodium salt of Compound 14) in Milli-Q water at 1, 3, 10 and 30 mg/kg. A blood sample was collected from each animal through the catheter line at pre-dose and 2 hours post-dose for compound concentration quantification. Hemodynamic measures were recorded for ten hours post-dose. […]
ADInstruments LabChart (v8) was used to monitor and export hemodynamic data. Blood pressure and heart rate were continuously monitored, and data were collected at 1000 data points per second then averaged into 10-minute bins for analysis. Change from baseline MAP (ΔBMAP) and HR (ΔBHR) were calculated using the pre-dose baseline averaged over the 1-hr period prior to dosing using Microsoft Excel for Microsoft 365. […]
Statistical analyses were performed in Graphpad Prism (v8). […] Vehicle-adjusted HR (ΔVHR) was calculated in a similar manner to ΔVMAP. […]

Cc1cc(F)c(Cc2nc(-c3ncc(F)c(O)n3)cn3ccnc23)cc1F [Compound I-14, 5-fluoro-2-(8-(2,5-difluoro-4-methylbenzyl)imidazo[1,2-a]pyrazin-6-yl)pyrimidin-4-ol]
EC50 (human α2β1 sGC isozyme): ≤ 100 nM | effect on MAP from baseline and as adjusted from vehicle (normotensive rats; 3, 10, and 30 mg/kg single oral dose): lowered MAP | change from baseline MAP (ΔBMAP) compared with vehicle-treated rats (normotensive rats; single oral dose 1, 3, 10 and 30 mg/kg, 2-way ANOVA significant): greater decrease in MAP
